In patent US10544143B2, “4-azaindole compounds” (BRISTOL-MYERS SQUIBB COMPANY, priority 2017, dated 2020):
Like-named read-outs stand apart in the source and are kept apart here.

Tests used:
human TLR9 = human TLR9 (Homo sapiens (Human), UniProt Q9NR96); assay: TLR9 inhibition reporter assay (HEK-Blue SEAP); conditions: read-out: TLR9 IC50;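 further: SEAP driven by an IFN-β minimal promoter with NF-κB and AP-1 sites, read after 22 h, compounds dosed 0.05 nM–50 µM, inhibition scaled between agonist plus DMSO and reference-inhibitor wells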
human TLR9, sequence (Q9NR96 26-1032): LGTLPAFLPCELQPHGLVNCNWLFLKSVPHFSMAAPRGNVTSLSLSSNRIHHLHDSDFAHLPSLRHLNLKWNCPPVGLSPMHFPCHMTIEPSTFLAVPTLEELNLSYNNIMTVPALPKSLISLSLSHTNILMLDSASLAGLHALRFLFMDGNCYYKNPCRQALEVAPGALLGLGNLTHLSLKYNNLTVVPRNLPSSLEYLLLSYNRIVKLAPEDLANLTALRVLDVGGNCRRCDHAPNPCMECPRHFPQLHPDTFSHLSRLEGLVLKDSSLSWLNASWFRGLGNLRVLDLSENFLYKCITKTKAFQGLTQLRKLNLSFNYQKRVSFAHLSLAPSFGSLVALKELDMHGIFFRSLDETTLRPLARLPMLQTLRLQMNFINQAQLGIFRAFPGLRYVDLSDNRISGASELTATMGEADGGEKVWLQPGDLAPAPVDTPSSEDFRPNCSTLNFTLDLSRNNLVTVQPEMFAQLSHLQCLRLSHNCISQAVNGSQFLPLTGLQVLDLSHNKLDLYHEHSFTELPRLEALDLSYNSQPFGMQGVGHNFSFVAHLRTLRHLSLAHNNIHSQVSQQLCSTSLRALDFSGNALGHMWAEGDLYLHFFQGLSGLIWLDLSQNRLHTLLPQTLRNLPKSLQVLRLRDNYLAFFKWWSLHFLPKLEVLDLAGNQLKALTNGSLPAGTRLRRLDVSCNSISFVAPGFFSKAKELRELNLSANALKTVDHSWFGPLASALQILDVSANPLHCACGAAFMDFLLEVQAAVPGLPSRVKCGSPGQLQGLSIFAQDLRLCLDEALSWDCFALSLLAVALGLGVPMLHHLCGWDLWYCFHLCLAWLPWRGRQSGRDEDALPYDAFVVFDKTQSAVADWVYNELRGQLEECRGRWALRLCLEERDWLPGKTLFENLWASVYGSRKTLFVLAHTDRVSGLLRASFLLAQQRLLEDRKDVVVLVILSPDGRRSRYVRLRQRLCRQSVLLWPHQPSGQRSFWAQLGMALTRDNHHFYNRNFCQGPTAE

human TLR7 = human TLR7 (Homo sapiens (Human), UniProt Q9NYK1); assay: TLR7 inhibition reporter assay (HEK-Blue SEAP); assay type: cell-based
human TLR7, sequence (Q9NYK1 27-1049): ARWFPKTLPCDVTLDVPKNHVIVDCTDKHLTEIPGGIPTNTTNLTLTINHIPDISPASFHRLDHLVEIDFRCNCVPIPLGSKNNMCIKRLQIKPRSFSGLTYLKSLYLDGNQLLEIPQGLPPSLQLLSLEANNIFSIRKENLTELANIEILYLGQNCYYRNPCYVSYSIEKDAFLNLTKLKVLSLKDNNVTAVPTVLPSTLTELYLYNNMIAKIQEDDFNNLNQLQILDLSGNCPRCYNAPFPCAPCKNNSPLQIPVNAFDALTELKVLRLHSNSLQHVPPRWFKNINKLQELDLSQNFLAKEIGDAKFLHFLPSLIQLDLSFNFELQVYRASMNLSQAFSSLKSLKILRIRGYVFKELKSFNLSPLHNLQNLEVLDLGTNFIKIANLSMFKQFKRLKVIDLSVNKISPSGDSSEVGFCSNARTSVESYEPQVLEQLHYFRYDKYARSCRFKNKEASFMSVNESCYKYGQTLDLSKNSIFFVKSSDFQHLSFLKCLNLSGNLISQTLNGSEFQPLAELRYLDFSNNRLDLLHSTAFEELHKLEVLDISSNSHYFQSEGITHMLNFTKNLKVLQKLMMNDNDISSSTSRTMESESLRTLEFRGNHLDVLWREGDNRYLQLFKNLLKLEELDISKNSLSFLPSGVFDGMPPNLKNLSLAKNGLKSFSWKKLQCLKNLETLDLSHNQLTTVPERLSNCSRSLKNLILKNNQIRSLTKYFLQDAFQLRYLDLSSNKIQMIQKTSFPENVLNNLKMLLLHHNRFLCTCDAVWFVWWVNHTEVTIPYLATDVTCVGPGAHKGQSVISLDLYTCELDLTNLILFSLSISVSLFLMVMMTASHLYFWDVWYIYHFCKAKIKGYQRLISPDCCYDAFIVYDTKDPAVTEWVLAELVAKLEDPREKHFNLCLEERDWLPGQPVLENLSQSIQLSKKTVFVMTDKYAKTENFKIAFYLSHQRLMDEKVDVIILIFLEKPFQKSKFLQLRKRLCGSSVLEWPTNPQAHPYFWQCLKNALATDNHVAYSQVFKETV

human TLR8 = human TLR8 (Homo sapiens (Human), UniProt Q9NR97); assay: TLR8 inhibition reporter assay (HEK-Blue SEAP); conditions: read-out: TLR8 IC50;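 further: SEAP driven by IFN-β minimal promoter carrying NF-κB and AP-1 sites, compounds dosed 0.05 nM to 50 µM for 22 h, inhibition scaled between agonist-plus-DMSO and reference-inhibitor wells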
human TLR8, sequence (Q9NR97 27-1041): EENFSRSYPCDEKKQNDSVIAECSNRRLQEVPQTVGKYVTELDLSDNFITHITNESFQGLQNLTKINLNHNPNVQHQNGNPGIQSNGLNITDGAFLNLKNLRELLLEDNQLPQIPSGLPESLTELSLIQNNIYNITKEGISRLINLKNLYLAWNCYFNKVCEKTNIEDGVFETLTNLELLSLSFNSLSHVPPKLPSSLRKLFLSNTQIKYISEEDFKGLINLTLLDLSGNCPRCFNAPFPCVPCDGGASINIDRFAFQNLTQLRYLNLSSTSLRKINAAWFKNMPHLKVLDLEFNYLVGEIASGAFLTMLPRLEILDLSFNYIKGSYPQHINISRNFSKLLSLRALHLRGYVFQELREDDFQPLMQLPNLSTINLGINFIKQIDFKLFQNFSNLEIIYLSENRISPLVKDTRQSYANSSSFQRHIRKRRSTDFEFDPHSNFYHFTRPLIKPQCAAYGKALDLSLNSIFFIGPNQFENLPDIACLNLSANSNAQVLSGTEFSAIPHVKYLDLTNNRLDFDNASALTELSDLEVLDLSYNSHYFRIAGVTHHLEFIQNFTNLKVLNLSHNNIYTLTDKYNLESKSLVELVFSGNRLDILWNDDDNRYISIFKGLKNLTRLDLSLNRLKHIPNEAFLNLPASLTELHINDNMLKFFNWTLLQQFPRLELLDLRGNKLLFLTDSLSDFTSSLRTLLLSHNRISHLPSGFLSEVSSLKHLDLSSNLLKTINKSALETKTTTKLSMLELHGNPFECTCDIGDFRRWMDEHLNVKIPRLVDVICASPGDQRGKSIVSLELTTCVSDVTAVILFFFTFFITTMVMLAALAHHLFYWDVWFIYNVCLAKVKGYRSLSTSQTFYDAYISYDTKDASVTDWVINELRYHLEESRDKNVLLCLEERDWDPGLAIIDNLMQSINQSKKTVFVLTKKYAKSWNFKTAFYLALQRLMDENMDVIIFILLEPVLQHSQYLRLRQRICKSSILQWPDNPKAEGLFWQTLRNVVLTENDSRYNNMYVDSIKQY

[1] = HEK-Blue cells overexpressing human TLR9, ODN2006 5 nM stimulation, SEAP reporter
[2] = HEK-Blue cells overexpressing human TLR7, gardiquimod 7.5 μM stimulation, SEAP reporter
[3] = HEK-Blue cells overexpressing human TLR8, R848 15.9 μM stimulation, SEAP reporter
[4] = HEK-Blue cells overexpressing human TLR9, SEAP reporter, ODN2006 5 nM
[5] = HEK-Blue cells overexpressing human TLR7, SEAP reporter, gardiquimod 7.5 μM
[6] = HEK-Blue cells overexpressing human TLR8, SEAP reporter, R848 15.9 μM
[7] = HEK-Blue human TLR9 cells, ODN2006 5 nM
[8] = HEK-Blue human TLR7 cells, gardiquimod 7.5 μM
[9] = HEK-Blue human TLR8 cells, R848 15.9 μM

Question: COc1cc(-c2[nH]c3ccc(N4CC(N(C)C(=O)CN(C)C)C4)nc3c2C(C)C)cn2ncnc12 [Example 28] was tested. Which IC50 (human TLR9; [1]) did it give?
Answer: Its IC50 is > 50000 nM.

Question: And the IC50 (human TLR7; [2])?
Answer: Its IC50 is 263 nM.

Question: And the IC50 (human TLR8; [3])?
Answer: Its IC50 is 1500 nM.

Question: Cc1c(-c2[nH]c3ccc(C4CCN(CC(N)=O)CC4)nc3c2C(C)C)cn2ncnc2c1C [Example 560] was tested. Which IC50 (human TLR9; [4]) did it give?
Answer: Its IC50 is 3820 nM.

Question: And the IC50 (human TLR7; [5])?
Answer: Its IC50 is 1.2 nM.

Question: What about the IC50 (human TLR8; [6]) of the same compound?
Answer: The IC50 was 1 nM.

Question: For Cc1c(-c2[nH]c3ccc(C4CCC(NC(C)(C)C(=O)N(C)C)CC4)nc3c2C(C)C)cn2ncnc2c1C (stereo not drawn) [Example 495], which IC50 (human TLR9; [4]) is on record?
Answer: The IC50 was 3600 nM.

Question: What about the IC50 (human TLR7; [5]) of the same compound?
Answer: The IC50 was 3.3 nM.

Question: What about the IC50 (human TLR8; [6]) of the same compound?
Answer: Its IC50 is 1.3 nM.

Question: For Cc1c(-c2[nH]c3cc(F)c(C4CCC(N)CC4)nc3c2C(C)C)cn2ncnc2c1C (stereo not drawn) [Example 506], which IC50 (human TLR9; [4]) is on record?
Answer: Its IC50 is 3180 nM.

Question: And the IC50 (human TLR7; [5])?
Answer: The IC50 was 0.41 nM.

Question: And the IC50 (human TLR8; [6])?
Answer: The IC50 was 0.42 nM.

Question: Which results are given for Cc1c(-c2[nH]c3ccc(C4CCC(NCCO)CC4)nc3c2C(C)C)cn2ncnc2c1C (stereo not drawn) [Example 409]?
Answer: IC50 (human TLR9; [4]): 550 nM; IC50 (human TLR7; [5]): 1.7 nM; IC50 (human TLR8; [6]): 1.6 nM

Question: Which IC50 (human TLR9; [4]) does the source give for Cc1cc(-c2[nH]c3ccc(C4CN(C(C)C)CCO4)nc3c2C(C)C)cn(C)c1=O (stereo not drawn) [Example 678] here?
Answer: The IC50 was > 50000 nM.

Question: What about the IC50 (human TLR7; [5]) of the same compound?
Answer: The IC50 was 36 nM.

Question: And the IC50 (human TLR8; [6])?
Answer: Its IC50 is 29 nM.

Question: What does the source list for Cc1c(-c2[nH]c3ccc(N4C[C@H](C)N(CCC(N)=O)C[C@H]4C)nc3c2C(C)C)cn2ncnc2c1C [Example 847]?
Answer: IC50 (human TLR9; [7]): 22500 nM; IC50 (human TLR7; [8]): 4.9 nM; IC50 (human TLR8; [9]): 8.3 nM

Question: How did the IC50 (human TLR9; [4]) turn out when Cc1cc(-c2[nH]c3ccc(C4CCN(CC(=O)N(C)C)CC4)nc3c2C(C)C)cn(C)c1=O [Example 529] was run?
Answer: Its IC50 is 1830 nM.

Question: What about the IC50 (human TLR7; [5]) of the same compound?
Answer: The IC50 was 2.9 nM.

Question: What about the IC50 (human TLR8; [6]) of the same compound?
Answer: Its IC50 is 12 nM.

Question: Which results are given for COc1cc(-c2[nH]c3ccc(N4CCNCC4)nc3c2C(C)C)cn2ncnc12 [Example 89]?
Answer: IC50 (human TLR9; [1]): 3260 nM; IC50 (human TLR7; [2]): 0.51 nM; IC50 (human TLR8; [3]): 0.59 nM

Question: COc1cc(-c2[nH]c3ccc(OCC4CCN(C(C)C)CC4)nc3c2C(C)C)cn2ncnc12 [Example 598, 6-(3-isopropyl-5-((1-isopropylpiperidin-4-yl)methoxy)-1H-pyrrolo[3,2-b]pyridin-2-yl)-8-methoxy-[1,2,4]triazolo[1,5-a]pyridine] was tested. Which IC50 (human TLR9; [4]) did it give?
Answer: The IC50 was 949 nM.

Question: What about the IC50 (human TLR7; [5]) of the same compound?
Answer: The IC50 was 0.81 nM.

Question: What about the IC50 (human TLR8; [6]) of the same compound?
Answer: The IC50 was 3.1 nM.

Question: How did the IC50 (human TLR9; [1]) turn out when Cc1c(-c2[nH]c3ccc(C4CCC(N5CCOCC5)CC4)nc3c2C(C)C)cn2ncnc2c1C (stereo not drawn) [Example 362] was run?
Answer: Its IC50 is 1630 nM.

Question: And the IC50 (human TLR7; [2])?
Answer: Its IC50 is 1.6 nM.

Question: And the IC50 (human TLR8; [3])?
Answer: Its IC50 is 5.1 nM.

Question: How did the IC50 (human TLR9; [4]) turn out when Cc1c(-c2[nH]c3ccc(C4CCN(C5COC5)CC4)nc3c2C(C)C)cn2ncnc2c1C [Example 538] was run?
Answer: Its IC50 is 8180 nM.

Question: And the IC50 (human TLR7; [5])?
Answer: The IC50 was 2 nM.

Question: What about the IC50 (human TLR8; [6]) of the same compound?
Answer: Its IC50 is 3.3 nM.

Question: With COc1cc(-c2[nH]c3ccc(CCC4CN(C5COC5)C4)nc3c2C(C)C)cn2ncnc12 [Example 700] as the compound, how does the IC50 (human TLR9; [4]) read?
Answer: Its IC50 is 2330 nM.

Question: What about the IC50 (human TLR7; [5]) of the same compound?
Answer: Its IC50 is 26 nM.

Question: What about the IC50 (human TLR8; [6]) of the same compound?
Answer: Its IC50 is 43 nM.

Question: Which IC50 (human TLR9; [1]) does the source give for CNC1CN(c2ccc3[nH]c(-c4cc(OC)c5ncnn5c4)c(C(C)C)c3n2)C1 [Example 31] here?
Answer: The IC50 was 6060 nM.

Question: And the IC50 (human TLR7; [2])?
Answer: Its IC50 is 13 nM.

Question: What about the IC50 (human TLR8; [3]) of the same compound?
Answer: The IC50 was 19 nM.

Question: Which results are given for COc1cc(-c2[nH]c3ccc(C4CCC(N(C)Cc5ncccn5)CC4)nc3c2C(C)C)cn2ncnc12 (stereo not drawn) [Example 208]?
Answer: IC50 (human TLR9; [1]): 1350 nM; IC50 (human TLR7; [2]): 2.2 nM; IC50 (human TLR8; [3]): 16 nM

Question: Which IC50 (human TLR9; [4]) does the source give for COc1cc(-c2[nH]c3ccc(C4CN(C(=O)CN(C)C)CCO4)nc3c2C(C)C)cn2ncnc12 (stereo not drawn) [Example 668] here?
Answer: Its IC50 is 17500 nM.

Question: And the IC50 (human TLR7; [5])?
Answer: Its IC50 is 1.7 nM.

Question: And the IC50 (human TLR8; [6])?
Answer: Its IC50 is 22 nM.

Question: For Cc1c(-c2[nH]c3ccc(C4CCN(CC(C)(C)O)CC4)nc3c2C(C)C)cn2ncnc2c1C [Example 541], which IC50 (human TLR9; [4]) is on record?
Answer: Its IC50 is 1430 nM.

Question: And the IC50 (human TLR7; [5])?
Answer: Its IC50 is 1.2 nM.

Question: What about the IC50 (human TLR8; [6]) of the same compound?
Answer: Its IC50 is 0.36 nM.

Question: What does the source list for Cc1c(-c2[nH]c3ccc(N4C[C@H](C)N(C(=O)CN5CC6(COC6)C5)C[C@H]4C)nc3c2C(C)C)cn2ncnc2c1C [Example 935]?
Answer: IC50 (human TLR9; [7]): 5610 nM; IC50 (human TLR7; [8]): 0.48 nM; IC50 (human TLR8; [9]): 2.9 nM

Question: For Cc1c(-c2[nH]c3ccc(C4CCC(NCC(=O)NC(C)(C)C)CC4)nc3c2C(C)C)cn2ncnc2c1C (stereo not drawn) [Example 489], which IC50 (human TLR9; [4]) is on record?
Answer: Its IC50 is 6670 nM.

Question: What about the IC50 (human TLR7; [5]) of the same compound?
Answer: Its IC50 is 20 nM.

Question: What about the IC50 (human TLR8; [6]) of the same compound?
Answer: Its IC50 is 20 nM.

Question: Which IC50 (human TLR9; [4]) does the source give for COCCN(C1CCC(c2ccc3[nH]c(-c4cn5ncnc5c(C)c4C)c(C(C)C)c3n2)CC1)C1(CO)COC1 (stereo not drawn) [Example 499] here?
Answer: Its IC50 is > 50000 nM.

Question: And the IC50 (human TLR7; [5])?
Answer: The IC50 was 607 nM.

Question: And the IC50 (human TLR8; [6])?
Answer: The IC50 was 833 nM.

Question: Which results are given for Cc1cc(-c2[nH]c3ccc(C4CCN(CC(C)(C)O)CC4)nc3c2C(C)C)cn2ncnc12 [Example 547]?
Answer: IC50 (human TLR9; [4]): 789 nM; IC50 (human TLR7; [5]): 0.27 nM; IC50 (human TLR8; [6]): 0.55 nM

Question: With Cc1c(-c2[nH]c3ccc(C4CNCCO4)nc3c2C(C)C)cn2ncnc2c1C (stereo not drawn) [Example 662] as the compound, how does the IC50 (human TLR9; [4]) read?
Answer: The IC50 was 9030 nM.

Question: And the IC50 (human TLR7; [5])?
Answer: The IC50 was 1.8 nM.

Question: And the IC50 (human TLR8; [6])?
Answer: The IC50 was 1 nM.

Question: How did the IC50 (human TLR9; [1]) turn out when Cc1c(-c2[nH]c3ccc(N4CCC(N(Cc5ncnn5C)Cc5ncnn5C)CC4)nc3c2C(C)C)cn2ncnc2c1C [Example 76] was run?
Answer: Its IC50 is > 50000 nM.

Question: And the IC50 (human TLR7; [2])?
Answer: The IC50 was 34 nM.

Question: What about the IC50 (human TLR8; [3]) of the same compound?
Answer: Its IC50 is 15 nM.

Question: For COCCN1CC2(C1)CN(c1ccc3[nH]c(-c4cn5ncnc5c(C)c4C)c(C(C)C)c3n1)C2 [Example 1013], which IC50 (human TLR9; [7]) is on record?
Answer: The IC50 was 7680 nM.

Question: What about the IC50 (human TLR7; [8]) of the same compound?
Answer: Its IC50 is 11 nM.

Question: And the IC50 (human TLR8; [9])?
Answer: Its IC50 is 9.2 nM.
